The target in this experiment is human PRMT8 (Homo sapiens, UniProt Q9NR22). The experiment can be described thus: PRMT8 Biochemical Assay (3H-SAM Flashplate, peptide substrate). The settings on record: single experiment or average of multiple experiments. The essentials: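 E. coli-expressed human PRMT8 (GST removed) was preincubated with compound for 30 min at room temperature in 20 mM Bicine pH 7.6 with TCEP, BSG and Tween 20. 3H-SAM and a biotinylated H4 31-45 peptide were then added, and the reaction was stopped with cold SAM. Labelled peptide was captured on streptavidin Flashplates; % inhibition was calculated against DMSO and SAH controls and fitted to a 3- or 4-parameter curve.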
human PRMT8, sequence (Q9NR22 whole entry): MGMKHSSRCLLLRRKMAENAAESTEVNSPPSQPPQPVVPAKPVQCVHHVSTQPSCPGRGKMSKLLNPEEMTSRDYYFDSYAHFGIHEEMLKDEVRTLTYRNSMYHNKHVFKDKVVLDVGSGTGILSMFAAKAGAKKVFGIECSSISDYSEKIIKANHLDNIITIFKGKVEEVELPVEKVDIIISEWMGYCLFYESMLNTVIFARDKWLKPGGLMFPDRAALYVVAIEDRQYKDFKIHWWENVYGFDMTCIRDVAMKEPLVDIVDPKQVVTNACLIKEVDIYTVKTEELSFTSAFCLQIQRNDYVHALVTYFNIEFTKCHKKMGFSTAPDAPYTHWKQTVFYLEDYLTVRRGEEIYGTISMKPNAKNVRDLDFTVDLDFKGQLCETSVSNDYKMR

With `CNCCN(C)Cc1c[nH]nc1-c1ccc(F)cc1` [Compound 2, N^1-((3-(4-fluorophenyl)-1H-pyrazol-4-yl)methyl)-N^1,N^2-dimethylethane-1,2-diamine], the midpoint of inhibition, the IC50, lay at 507 nM.
In turn, `CCCc1ccc(-c2n[nH]cc2CN(C)CCNC)cc1` [Compound 20] gave an IC50 of 57.7 nM.
For the compound `CNCCN(C)Cc1c[nH]nc1-c1cccc([N+](=O)[O-])c1` [Compound 21], the half-inhibitory concentration (IC50) stood at 520 nM.
Next, `CNCCN(C)Cc1c[nH]nc1-c1cccc(C#N)c1` [Compound 22]: 2240 nM; `CNCCN(C)Cc1c[nH]nc1-c1ccccc1OC` [Compound 23]: 3290 nM.
Take `CNCCN(C)Cc1c[nH]nc1-c1cccc(OC)c1` [Compound 24]: inhibition was half-maximal at 888 nM (IC50).
As for `CNCCN(C)Cc1c[nH]nc1-c1ccc(OC)cc1` [Compound 25], the half-maximal inhibitory concentration (IC50) came to 550 nM.
As for `CNCCN(C)Cc1c[nH]nc1-c1cccc(O)c1` [Compound 26], inhibition was half-maximal at 1500 nM (IC50).
For the compound `CNCCN(C)Cc1c[nH]nc1-c1ccc(O)cc1` [Compound 27], 712 nM corresponded to half-maximal inhibition (IC50).
Next, `CNCCN(C)Cc1c[nH]nc1-c1ccc(CO)cc1` [Compound 28]: 95.5 nM.
Take `CNCCN(C)Cc1c[nH]nc1-c1ccc(C)cc1C` [Compound 29]: it took 2310 nM to reach half-maximal inhibition (IC50).
Take `CNCCN(C)Cc1cn(CCCC(O)CO)nc1-c1ccc(F)cc1` (stereo not drawn) [Compound 30]: the IC50 was over 50000 nM.
Compound `CNCCN(C)Cc1cnn(CCCC(O)CO)c1-c1ccc(F)cc1` (stereo not drawn) [Compound 31] showed an IC50 of 6310 nM.
Turning to `CNCCN(C)Cc1c[nH]nc1-c1ccc(N)cc1` [Compound 33], the half-maximal inhibitory concentration (IC50) came out at 1430 nM.
To `CNCCN(C)Cc1c[nH]nc1-c1ccc(Oc2ccccc2)cc1` [Compound 37] belongs 57.6 nM; to `CNCCN(C)Cc1c[nH]nc1-c1ccccc1C(F)(F)F` [Compound 38], 9900 nM; to `CCNC(=O)c1cccc(-c2n[nH]cc2CN(C)CCNC)c1` [Compound 43], 2260 nM.
Compound `CNCCN(C)Cc1c[nH]nc1-c1ccc(C(=O)c2ccccc2)cc1` [Compound 45] yielded a concentration for half-maximal inhibition (IC50) of 308 nM.
Consider `CNCCN(C)Cc1c[nH]nc1-c1ccccc1-c1ccccc1` [Compound 46], for which the 50% inhibitory concentration (IC50) is 11900 nM.
`CNCCN(C)Cc1c[nH]nc1-c1ccc(F)cc1F` [Compound 49] yielded an IC50 of 749 nM.
`CNCCN(C)Cc1c[nH]nc1-c1cc(F)ccc1F` [Compound 50] displayed a concentration for half-maximal inhibition (IC50) of 1660 nM.
As to `CNCCN(C)Cc1c[nH]nc1-c1ccc(F)c(F)c1` [Compound 51], half-maximal inhibition (IC50) was put at 184 nM. This IC50 is about 9-fold lower than that of the compound before.
To `CNCCN(C)Cc1c[nH]nc1-c1ccc(OC)c(F)c1` [Compound 52] belongs 219 nM; to `CNCCN(C)Cc1c[nH]nc1-c1ccc(OC)cc1OC` [Compound 55], 3190 nM; to `CNCCN(C)Cc1c[nH]nc1-c1c(OC)cccc1OC` [Compound 56], 34900 nM.
For the compound `CNCCN(C)Cc1c[nH]nc1-c1cccc2ccccc12` [Compound 57], the IC50 came to 196 nM.
`CNCCN(C)Cc1c[nH]nc1-c1ccc2ccccc2c1` [Compound 58] came in with a 50% inhibitory concentration (IC50) of 170 nM.
Take `CNCCN(C)Cc1cn(CCC(O)CO)nc1-c1ccc(F)cc1` (stereo not drawn) [Compound 59]: the concentration for half-maximal inhibition (IC50) was determined as 8860 nM.
The compound `CCN(CCN)Cc1c[nH]nc1-c1ccc(F)cc1` [Compound 62] showed a 50% inhibitory concentration (IC50) of 362 nM.
In turn, `CCCN(CCN)Cc1c[nH]nc1-c1ccc(F)cc1` [Compound 63] had an IC50 of 8030 nM.
Next, `CN(CCN)Cc1cnn(CCO)c1-c1ccc(F)cc1` [Compound 65]: 8610 nM; `CN(CCN)Cc1cn(CCO)nc1-c1ccc(F)cc1` [Compound 66]: 8750 nM.
As for `CN(CCN)Cc1c[nH]nc1-c1ccc(C#N)cc1` [Compound 68], the half-inhibitory concentration (IC50) came out at 404 nM.
`CNCCN(C)Cc1cnn(CC(=O)OC)c1-c1ccc(OC(C)C)cc1` [Compound 249]: the half-inhibitory concentration (IC50) came to 1500 nM. Compared with the last compound, the IC50 is about 3.7-fold higher.
Take `CNCCN(C)Cc1cn(CC(=O)O)nc1-c1ccc(OC(C)C)cc1` [Compound 250]: the IC50 turned out to be 2540 nM. Against the preceding compound, the IC50 is about 1.7-fold higher.
Next, `CNCCN(C)Cc1cn(C2CCCCC2)nc1-c1ccc(OC(C)C)cc1` [Compound 256]: 2650 nM.

What is called IC50 is the concentration that inhibits the measured activity by half. Read a high IC50 as lower potency.

The values above are taken from patent US9776972B2, “Pyrazole derivatives as arginine methyltransferase inhibitors and uses thereof” (priority 2013, dated 2017).
